For assay [1], the target named is T1, Pim-1 (Homo sapiens (Human), UniProt P11309). Put plainly: Pim enzyme assay (HTRF, 96-well), Pim-1. The settings on record: full length recombinant Pim-1, biotinylated-BAD (S112) peptide, 10-point curve, 2 h RT, read-out: Pim-1 IC50 IP. The class given is biochemical. An outline of the steps: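 HTRF detection of biotinylated BAD (S112) phosphorylation by full-length recombinant His-tagged Pim-1 or Pim-2 in 60 mM Hepes pH 7.0, 0.05% BSA, 2 mM DTT at 22 °C: 2 h for Pim-1, 45 min for Pim-2. Stopped with EDTA; IC50 from 4-parameter logistic fit of percent of control.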

The target in assay [2] is T2, Pim-2 (Homo sapiens (Human), UniProt Q9P1W9). Put plainly: Pim enzyme assay (HTRF, 96-well), Pim-2. Conditions: full length recombinant Pim-2, biotinylated-BAD (S112) peptide, 10-point curve, 45 min RT, read-out: Pim-2 IC50 IP. The class given is biochemical. The text has this: These cDNAs were used as templates in PCR reactions to produce full-length DNA clones of the PIMs. […] PCR products were digested with BclI and EcoRI for Pim-1 and BamHI and EcoRI for Pim-2 and ligated into a modified baculovirus transfer vector (pFastBac1) cleaved with BamHI and EcoRI. For bacterial expression, the same cleaved PCR products encoding Pim-1 or Pim-2 were ligated into a modified E. coli expression vector pET28(a) cleaved with BamHI and EcoRI. Amino-terminal hexahistidine tags followed by a thrombin cleavage site were previously added to the vectors using standard methods of molecular biology.
Recombinant baculoviruses expressing Pim-1 or Pim-2 were made using standard methods (Fastbac manual, Invitrogen, Carlsbad, Calif.). […] Cells were harvested by centrifugation and frozen at −80 C. For E. coli expression, cells carrying pET28-His6-Th-Pim-1 or pET28-His6-Th-Pim-2 were picked from a single colony and grown o/n in LB media. The o/n culture was used to inoculate a 2 liter flask with 500 mL media. This was grown o/n and used to inoculate 15-20 liters of Terrific Broth in a New Brunswick Scientific fermentor. The E. coli were grown at 37° C. to and OD600 >1.6. The temperature was dropped to 18° C. and o/n expression was induced with 0.5 mM IPTG. Cells were harvested by centrifugation and frozen at −80° C.
The slurry was centrifuged at 1,000×g for 5 min, the supernatant decanted, and the resin suspended in 40 mL of lysis wash buffer (lysis buffer at 0.75 M NaCl). This step was repeated 3× and the resin was transferred to a 2.5 cm glass column. Ten column volumes of wash buffer (0.05 M HEPES, pH 8.0, 0.1 M NaCl, 0.01 M 2-mercaptoethanol, 10%(w/v) glycerol) were applied to the resin followed by 10 column volumes of elution buffer (0.05 M HEPES, pH 8.0, 0.25 M NaCl, 0.01 M 2-mercaptoethanol, 10%(w/v) glycerol, 0.1 M imidazole). Fractions were analyzed by SDS-PAGE and those containing the protein of interest were pooled and concentrated. The concentrated protein was applied to an Amersham Superdex 75 (XK 26/60) column equilibrated in 0.025 M Tris-HCl, pH 7.5, 0.1 M NaCl, 0.01 M 2-mercaptoethanol, 10% (w/v) glycerol. […] Fractions containing the monomeric protein of interest were pooled, concentrated to ˜2 mg/mL, and stored at −80° C.
The phosphorylation of biotinylated-BAD (S112) peptide by full length recombinant Pim-1, Pim-2, or Pim-3 protein was detected with streptavidin:Allophycocyanin (APC) conjugate and a europium (Eu) labeled antibody directed against phosphorylated-BAD (S112). […] The fluorescence is directly proportional to the amount of phosphorylated BAD peptide present in the reaction. […] A reference compound was included on each assay plate in order to validate that plate; on one plate of every assay run, two additional reference compounds were included. The final buffer conditions were as follows: 60 mM Hepes, pH 7.0, 0.05% BSA, 2 mM DTT. Incubations were carried out at RT (22° C.) for 2 h for Pim-1, 1 hour and 30 min for Pim-3, and 45 min for Pim-2. The reaction was stopped by the addition of 3 mM EDTA, and fluorescence was measured by an HTRF® Rubystar microplate reader. For each plate, percent of control (POC) values were calculated for each well. Values for the IC50 IP were estimated using a standard 4-parameter logistic model.

Assay [3] deals with KMS-12-BM myeloma cell line. Put plainly: Pim KMS-12 cell assay (phospho-BAD S112 / total BAD, MSD). The settings on record: Homo sapiens, KMS-12-BM.
For assay [4], the target named is T1, Pim-1. The assay is described as follows: Pim-Mn enzyme assay (HTRF, 384-well), Pim-1. It counts as biochemical. Conditions: Pim-1 enzyme 5 pM, ATP 1.5 μM, BAD (S112) 0.5 μM, HTRF, 22-point curve; read-out: Pim-1-Mn IC50 IP.
The target of assay [5] is T2, Pim-2. The assay is described as follows: Pim-Mn enzyme assay (HTRF, 384-well), Pim-2. The class given is biochemical. Conditions: Pim-2 enzyme 0.5 pM, ATP 1.5 μM, BAD (S112) 0.5 μM, HTRF, 22-point curve; read-out: Pim-2-Mn IC50 IP.
[6] abbreviates: read-out: KMS-12-BM IC50 IP, KMS-12-BM cells, phospho-BAD (S112) vs total BAD, 1 hour 50 min with compound.

pIC50: −log10 of the molar value. Read-outs that look alike come from different tables or passages of the source.

T2 sequence (Q9P1W9 whole entry): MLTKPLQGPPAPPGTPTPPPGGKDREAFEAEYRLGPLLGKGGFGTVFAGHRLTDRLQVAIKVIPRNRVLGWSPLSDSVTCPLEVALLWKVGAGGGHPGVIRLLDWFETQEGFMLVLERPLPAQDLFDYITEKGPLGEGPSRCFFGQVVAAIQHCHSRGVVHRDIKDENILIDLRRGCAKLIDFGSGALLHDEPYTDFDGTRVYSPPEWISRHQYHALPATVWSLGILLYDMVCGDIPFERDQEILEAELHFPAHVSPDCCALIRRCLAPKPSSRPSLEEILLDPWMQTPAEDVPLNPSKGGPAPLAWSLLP
T1 sequence (P11309 whole entry): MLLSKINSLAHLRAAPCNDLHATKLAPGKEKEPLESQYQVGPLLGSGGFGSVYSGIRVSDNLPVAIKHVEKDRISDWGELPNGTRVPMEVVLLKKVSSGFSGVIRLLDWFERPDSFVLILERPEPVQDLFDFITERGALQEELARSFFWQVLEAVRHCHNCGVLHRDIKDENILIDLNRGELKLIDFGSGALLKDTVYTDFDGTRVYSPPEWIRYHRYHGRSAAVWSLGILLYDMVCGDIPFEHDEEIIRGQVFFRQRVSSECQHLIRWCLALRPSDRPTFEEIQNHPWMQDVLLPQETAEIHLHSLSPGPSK

Regarding `N[C@H]1CCC[C@H](Nc2ccc3cccc(-c4cc5c([nH]4)CCNC5=O)c3n2)C1` (racemic) [Example 120, rac-2-(2-((trans-3-aminocyclohexyl)amino)quinolin-8-yl)-6,7-dihydro-1H-pyrrolo[3,2-c]pyridin-4(5H)-one], the pIC50 was 9.22 in assay [1], 8.34 in assay [2] and 5.66 in assay [3] (setting [6]).
As to `CC1CNC(=O)c2cc(-c3cccc4ncc(Nc5ccccc5)nc34)[nH]c21` (racemic) [Example 187, rac-7-methyl-2-(3-(phenylamino)quinoxalin-5-yl)-6,7-dihydro-1H-pyrrolo[3,2-c]pyridin-4(5H)-one], the pIC50 in assay [1] was 8.72; in assay [2], 8.37; in assay [3] (setting [6]) it was 5.89.
In the case of `Cc1nc2cccc(-c3cc4c([nH]3)CCNC4=O)c2nc1NC1CCCNC1=O` (racemic) [Example 200, rac-2-(2-methyl-3-((2-oxopiperidin-3-yl)amino)quinoxalin-5-yl)-6,7-dihydro-1H-pyrrolo[3,2-c]pyridin-4(5H)-one], the pIC50 in assay [1] is 6.96; in assay [2], 7.07; in assay [4], 7.27; in assay [5], 7.38.
As for `N[C@@H]1CCC[C@H](Nc2ccc3cccc(-c4cc5c([nH]4)CCNC5=O)c3n2)C1` (single isomer, unassigned) [Example 122, 2-(2-((cis-3-aminocyclohexyl)amino)quinolin-8-yl)-6,7-dihydro-1H-pyrrolo[3,2-c]pyridin-4(5H)-one], the pIC50 was 10.00 in assay [1], 9.52 in assay [2] and 6.46 in assay [3] (setting [6]).
Consider `O=C1NCCc2[nH]c(-c3cccc4ccc(Nc5ccccc5)nc34)cc21` [Example 2, 2-(2-(phenylamino)quinolin-8-yl)-6,7-dihydro-1H-pyrrolo[3,2-c]pyridin-4(5H)-one], for which the pIC50 was 8.80 in assay [1], 8.10 in assay [2] and 6.15 in assay [3] (read-out: KMS-12-BM IC50 IP).
As to `O=C1NCCc2[nH]c(-c3cccc4ccc(Cc5ccccc5)nc34)cc21` [Example 3, 2-(2-benzylquinolin-8-yl)-6,7-dihydro-1H-pyrrolo[3,2-c]pyridin-4(5H)-one], the pIC50 in assay [1] was 7.89; in assay [2], 7.43; in assay [3] (read-out: KMS-12-BM IC50 IP), 5.21.
Taken in the same sequence, the figures for `CN(c1ccccc1)c1ccc2cccc(-c3cc4c([nH]3)CCNC4=O)c2n1` [Example 4, 2-(2-(methyl(phenyl)amino)quinolin-8-yl)-6,7-dihydro-1H-pyrrolo[3,2-c]pyridin-4(5H)-one] were 8.68, 8.17 and 5.63.
Regarding `O=C1NCCc2[nH]c(-c3cccc4ccc(Nc5ccccc5F)nc34)cc21` [Example 6, 2-(2-((2-fluorophenyl)amino)quinolin-8-yl)-6,7-dihydro-1H-pyrrolo[3,2-c]pyridin-4(5H)-one], the pIC50 is 8.92 in assay [1], 8.34 in assay [2] and 5.93 in assay [3] (setting [6]).
For the compound `O=C1NCCc2[nH]c(-c3cccc4ccc(Nc5c(F)cccc5Cl)nc34)cc21` [Example 7, 2-(2-((2-chloro-6-fluorophenyl)amino)quinolin-8-yl)-6,7-dihydro-1H-pyrrolo[3,2-c]pyridin-4(5H)-one], the pIC50 was 9.00 in assay [1], 8.28 in assay [2] and 5.56 in assay [3] (setting [6]).
As to `Cc1nc2cccc(-c3cc4c([nH]3)CCNC4=O)c2nc1N1CCC1` [Example 139, 2-(3-(azetidin-1-yl)-2-methylquinoxalin-5-yl)-6,7-dihydro-1H-pyrrolo[3,2-c]pyridin-4(5H)-one], the pIC50 is 7.75 in assay [1], 7.80 in assay [2], 7.62 in assay [4] and 7.71 in assay [5].
Turning to `O=c1[nH]ccc2[nH]c(-c3cccc4ccc(Nc5ccccc5)nc34)nc12` [Example 189, 2-(2-(phenylamino)quinolin-8-yl)-1H-imidazo[4,5-c]pyridin-4(5H)-one 2,2,2-trifluoroacetate], the results for the negative-log IC50 (pIC50) in assay [1] and in assay [2] were 7.54 and 7.14, respectively.
Take `O=c1[nH]ccc2[nH]c(-c3cccc4ccc(Oc5ccccc5)nc34)cc12` [Example 225, 2-(2-phenoxyquinolin-8-yl)-1H-pyrrolo[3,2-c]pyridin-4(5H)-one]: the negative logarithm of the IC50 (pIC50) was 7.80 in assay [1] and 7.36 in assay [2].
With `O=C1NCCc2[nH]c(-c3cccc4ccc(-c5ccccc5)nc34)cc21` [Example 226, 2-(2-phenylquinolin-8-yl)-6,7-dihydro-1H-pyrrolo[3,2-c]pyridin-4(5H)-one], the pIC50 was 7.60 in assay [1] and 7.42 in assay [2].
`Cn1cc(-c2ccc3ccc(F)c(-c4cc5c([nH]4)CCNC5=O)c3n2)cn1` [Example 229, 2-(7-fluoro-2-(1-methyl-1H-pyrazol-4-yl)quinolin-8-yl)-6,7-dihydro-1H-pyrrolo[3,2-c]pyridin-4(5H)-one]: the pIC50 in assay [1], in assay [2] and in assay [4] was 7.04 each time.
With `O=C1NCCc2[nH]c(-c3cccc4ccc(-c5c(F)cccc5F)nc34)cc21` [Example 231, 2-(2-(2,6-difluorophenyl)quinolin-8-yl)-6,7-dihydro-1H-pyrrolo[3,2-c]pyridin-4(5H)-one], the pIC50 in assay [1] was 8.09; in assay [2] it was 7.04.
`Cc1ccc(C(N)=O)cc1-c1ccc2cccc(-c3cc4c([nH]3)CCNC4=O)c2n1` [Example 232, 4-methyl-3-(8-(4-oxo-4,5,6,7-tetrahydro-1H-pyrrolo[3,2-c]pyridin-2-yl)-2-quinolinyl)benzamide]: the values for the pIC50 in assay [1] and in assay [2] were 7.63 and 7.28, respectively.
With `O=C1NCCc2[nH]c(-c3cccc4cnc(Oc5ccccc5)nc34)cc21` [Example 236, 2-(2-phenoxyquinazolin-8-yl)-6,7-dihydro-1H-pyrrolo[3,2-c]pyridin-4(5H)-one 2,2,2-trifluoroacetate], the pIC50 in assay [1] is 7.47; in assay [2] it was 7.40.
Taken in the same sequence, the figures for `O=C1NCCc2[nH]c(-c3cccc4cnc(C5(c6ccccc6)CC5)nc34)cc21` [Example 244, 2-(2-(1-phenylcyclopropyl)quinazolin-8-yl)-6,7-dihydro-1H-pyrrolo[3,2-c]pyridin-4(5H)-one] were 8.16 and 7.75.
Turning to `O=C1NCCc2[nH]c(-c3cccc4cnc(Nc5ccccc5)nc34)cc21` [Example 251, 2-(2-(phenylamino)quinazolin-8-yl)-6,7-dihydro-1H-pyrrolo[3,2-c]pyridin-4(5H)-one], the values for the pIC50 in assay [1] and in assay [2] were 8.08 and 7.87, respectively.

The record behind these values is patent US9394297B2, “Amides as pim inhibitors” (AMGEN INC., priority 2012, dated 2016).
